Laboratory results: US20100286038A1, “FORMULATION CONTAINING CYCLIN-DEPENDENT KINASE INHIBITING COMPOUND AND METHOD OF TREATING TUMORS USING THE SAME” (priority 2007, published 2010)
Read-outs that look alike come from different tables or passages of the source.

What was measured:
MSK1 = target: T1, MSK1 (Homo sapiens, UniProt O75582); test: Upstate kinase Profiler counter-screening; assay type: biochemical
T1 construct: purchased Upstate

A2780 cells = conditions: two hours exposure, 24 hours after exposure
Experimental: Cells were then fixed, stained with an FITC-conjugated, anti-BrdU monoclonal antibody and propidium iodide. The cells thus prepared were analyzed using 2-color flow cytometry with doublet-discrimination.

PKCε = target: T2, PKCε (Homo sapiens, UniProt Q02156); test: Upstate kinase Profiler counter-screening; assay type: biochemical
T2 construct: purchased Upstate
T2 sequence (Q02156 1-737): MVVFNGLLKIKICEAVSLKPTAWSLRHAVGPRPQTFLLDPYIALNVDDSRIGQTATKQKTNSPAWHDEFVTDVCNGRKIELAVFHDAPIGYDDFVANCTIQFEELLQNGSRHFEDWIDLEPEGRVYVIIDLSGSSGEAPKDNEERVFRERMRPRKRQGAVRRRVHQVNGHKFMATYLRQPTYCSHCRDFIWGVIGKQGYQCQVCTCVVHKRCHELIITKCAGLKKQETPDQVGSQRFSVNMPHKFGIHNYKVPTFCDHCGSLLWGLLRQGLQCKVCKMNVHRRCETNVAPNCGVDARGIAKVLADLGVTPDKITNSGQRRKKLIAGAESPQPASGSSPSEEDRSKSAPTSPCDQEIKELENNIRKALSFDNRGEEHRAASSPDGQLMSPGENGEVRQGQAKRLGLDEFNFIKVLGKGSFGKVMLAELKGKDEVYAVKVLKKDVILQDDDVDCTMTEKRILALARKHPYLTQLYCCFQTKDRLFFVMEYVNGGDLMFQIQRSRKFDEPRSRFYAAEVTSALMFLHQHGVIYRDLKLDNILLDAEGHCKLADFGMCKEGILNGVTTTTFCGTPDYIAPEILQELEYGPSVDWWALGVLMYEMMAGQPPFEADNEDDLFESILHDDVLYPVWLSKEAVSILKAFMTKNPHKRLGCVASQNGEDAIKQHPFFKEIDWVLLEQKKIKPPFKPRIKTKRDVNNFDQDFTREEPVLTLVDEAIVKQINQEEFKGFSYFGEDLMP

[1] = test system: A2780 ovarian cancer cell cultures; conditions: 2 hours of exposure, 6 hour washout; no increase up to 5.0 micromolar
Experimental: After the 6 hour washout period, cell extracts were prepared and evaluated by fluorometric assay for activated caspases (RFLU).

AMPK = test: Upstate kinase Profiler counter-screening; assay type: biochemical
[2] = 40 mg/kg once per day for five days; blood on days 1 and 7 following the last dose
Experimental: The formulation was administered to BALB/c mice at a dosage level of 40 mg/kg once per day for five days. Blood samples were obtained on days 1 and 7 following the last dose and analyzed on an Advia 120 hematology analyzer immediately after diluting 1:5 in PBS. A full differential blood count was performed, including red blood cell analysis (including reticulocyte, variant count, and hemoglobin analyses), white blood cell analysis (including differential lineage counts and peroxidase staining) and a thrombopoiesis analysis.

PKCα = target: T3, PKCα (Homo sapiens, UniProt P17252); test: Upstate kinase Profiler counter-screening; assay type: biochemical
T3 construct: purchased Upstate

[3] = test system: various human tumor cell lines; conditions: for Caspase Activation (number of sensitive cell lines out of total tested/single exposure): two hour exposure to less than 0.1 micromolar
Experimental: The level of activation of apoptosis was also assessed by determining the levels of activated caspase in each cell line. […] The cells were evaluated fluorometrically for levels of activated caspase six hours post washout. Samples of each cell line were also subjected to SDS-PAGE and subsequently immunoblotted for p85 PARP caspase cleavage product.

[4] = test system: tumor cell lines including the standard NCI panel; conditions: inhibition of CDK2/CDK1 in tumor cells

T1 sequence (O75582 whole entry, species assumed): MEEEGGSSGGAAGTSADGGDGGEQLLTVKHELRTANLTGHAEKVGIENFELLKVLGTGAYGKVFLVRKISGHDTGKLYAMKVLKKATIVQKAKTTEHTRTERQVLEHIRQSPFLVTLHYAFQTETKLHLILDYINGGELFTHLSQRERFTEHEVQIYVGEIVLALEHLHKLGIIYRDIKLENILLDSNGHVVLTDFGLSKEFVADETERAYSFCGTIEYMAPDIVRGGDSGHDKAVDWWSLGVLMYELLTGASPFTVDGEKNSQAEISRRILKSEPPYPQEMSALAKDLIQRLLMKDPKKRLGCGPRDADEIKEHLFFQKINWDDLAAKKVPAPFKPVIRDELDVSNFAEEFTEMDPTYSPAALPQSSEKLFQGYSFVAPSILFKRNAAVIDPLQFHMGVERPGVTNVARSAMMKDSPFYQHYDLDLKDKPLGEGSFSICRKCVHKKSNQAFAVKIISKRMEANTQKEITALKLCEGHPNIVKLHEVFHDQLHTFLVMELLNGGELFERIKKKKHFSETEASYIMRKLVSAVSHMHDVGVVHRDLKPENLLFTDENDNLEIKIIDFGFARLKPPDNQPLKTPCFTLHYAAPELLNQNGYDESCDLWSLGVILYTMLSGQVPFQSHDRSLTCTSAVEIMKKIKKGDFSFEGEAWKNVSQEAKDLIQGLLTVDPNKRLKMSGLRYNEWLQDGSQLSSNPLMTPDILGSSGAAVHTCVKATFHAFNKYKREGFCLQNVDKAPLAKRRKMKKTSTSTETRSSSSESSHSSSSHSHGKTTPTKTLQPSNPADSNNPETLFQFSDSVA

CCc1cnn2c(NCc3ccc[n+]([O-])c3)cc(N3CCCC[C@H]3CCO)nc12 [Formula II]
% remaining activity (MSK1; at 1 μM): 94% | % remaining activity (MSK1; at 10 μM): 97% | exposure completely suppressing DNA synthesis (A2780 cells): greater than 0.5 micromolar | exposure showing accumulation of subG1 (apoptotic cells) (A2780 cells): greater than 0.5 micromolar | % remaining activity (PKCε; at 1 μM): 93% | % remaining activity (PKCε; at 10 μM): 88% | exposure level at which caspase activity is maximal [1]: 0.05 µM | % remaining activity (AMPK; at 1 μM): 94% | % remaining activity (AMPK; at 10 μM): 82% | effect on platelets or red blood cells [2]: No effect | % remaining activity (PKCα; at 1 μM): 96% | % remaining activity (PKCα; at 10 μM): 94% | Caspase Activation (number of sensitive cell lines out of total tested/single exposure) ([3]; Bladder): 1 of 2 | Caspase Activation (number of sensitive cell lines out of total tested/single exposure) ([3]; Breast): 6 of 7 | Caspase Activation (number of sensitive cell lines out of total tested/single exposure) ([3]; Colon): 5 of 9 | Caspase Activation (number of sensitive cell lines out of total tested/single exposure) ([3]; Leukemia): 5 of 6 | Caspase Activation (number of sensitive cell lines out of total tested/single exposure) ([3]; Liver): 2 of 2 | Caspase Activation (number of sensitive cell lines out of total tested/single exposure) ([3]; Lymphoma (NHL)): 8 of 8 | Caspase Activation (number of sensitive cell lines out of total tested/single exposure) ([3]; Mantle Cell lymphoma): 3 of 4 | Caspase Activation (number of sensitive cell lines out of total tested/single exposure) ([3]; Melanoma): 9 of 9 | Caspase Activation (number of sensitive cell lines out of total tested/single exposure) ([3]; NSCLC): 8 of 9 | Caspase Activation (number of sensitive cell lines out of total tested/single exposure) ([3]; Ovarian): 5 of 7 | Caspase Activation (number of sensitive cell lines out of total tested/single exposure) ([3]; Pancreatic): 11 of 15 | Caspase Activation (number of sensitive cell lines out of total tested/single exposure) ([3]; Prostate): 4 of 5 | Caspase Activation (number of sensitive cell lines out of total tested/single exposure) ([3]; SCLC): 2 of 6 | share of cell lines tested with caspase activation and apoptosis detected ([3]; single exposure): over 85% | number of tumor cell lines with cell cycle arrest and apoptosis [4]: more than 100 tumor cell lines
